The values below come from US20070082910A1, “Specific nad(p)h oxidase inhibitor” (Mitsubishi Pharma Corporation, priority 2003, published 2007).

Each structure is given as a SMILES string. pIC50: −log10 of the molar value.

Test [1] concerns NAD(P)H oxidase in diabetic rat aorta. Nature of the test: Aorta NAD(P)H oxidase inhibitory effect, test compound added to aorta ring specimen in vitro. In kind it is biochemical. The method, then: This ring specimen was preincubated in Krebs-Hepes buffer containing the test compound (compound A, compound B or DPI (SIGMA)) at 37° C. for 10 min, and then transferred to Krebs-Hepes buffer containing 0.25 mM lucigenin. […] The total value of chemiluminescence was calculated from AUC of the curve drawn by plotting the chemiluminescence value (vertical axis) relative to the measurement time (horizontal axis). The obtained chemiluminescence value was divided by the wet weight of the vascular ring specimen and standardized to the superoxide anion production per aorta unit weight.

The test system of the next test is leukocyte NADPH oxidase. Nature of the test: Effect on leukocyte NADPH oxidase (PMA-stimulated lucigenin chemiluminescence). The test is classed as cell-based, rat. The method, then:
Blood was drawn from the abdominal aorta of normal male Wister rats (Japan SLC) and immediately mixed with an ice-cold lysis buffer at 42 mL of the buffer per 3 mL of the blood.
After 5 min, the mixture was centrifuged at 4° C., 1100 rpm for 5 min. The precipitate was suspended in an ice-cold Lysis buffer, and centrifuged again at 4° C., 1100 rpm for 5 min. This operation was repeated 3 times to obtain leukocytes. The obtained leukocytes were suspended in Krebs-Hepes buffer and the number of the cells was adjusted to 1×10^6/ml. 0.25 mM Lucigenin and the test agent were added, Phorbol 12-myristate 13-acetate (hereinafter to be indicated as “PMA”, SIGMA) was further added, and the chemiluminescence value was measured at 37° C. for 10 min.
The inhibitory rate (%) was calculated by the following formula: inhibitory rate (%)=100−[(A−C)/(B−C))×[…] wherein A is the total chemiluminescence value of the leukocyte suspension with the addition of the test compound, B is the total chemiluminescence value of the leukocyte suspension (control) without addition of the test compound, and C is the total chemiluminescence value of the leukocyte suspension without stimulation with PMA.

The subject of a further test is NAD(P)H oxidase. Nature of the test: IL-8 production inhibitory effect in HUVEC cultured with 44 mM glucose. In kind it is cell-based, human. The following applies: for pIC50: from dose-effect line by least squares; for inhibitory rate (%) of IL-8 production: 8 days. The method, then: NAD(P)HOxidase Inhibitory Effect (Method)
44 mM glucose was added to Human Umbilical Vein Endothelial Cells (Bio Whittaker, hereinafter to be indicated as “HUVEC”), and cells were cultured for 8 days. Then, a lysis buffer containing a surfactant, Triton-X Nonidet P-40, was added, and interleukin-8 (hereinafter to be indicated as “IL-8”) in the cell lysate, which had been produced by NAD(P)H oxidase was measured by an enzyme-linked […]. The test compound was added one day before glucose addition.
The inhibitory rate was calculated from the following formula: inhibitory rate (%)=100−[(A−C)/(B−C)]×100
wherein A is IL-8 production of a cell cultured in the presence of 44 mM glucose with addition of the test compound, B is IL-8 production of a cell cultured in the presence of 44 mM glucose without addition of the test compound, and C is IL-8 production of a cell cultured in the absence of 44 mM glucose and the test compound. The IC50 value was calculated from the dose-effect line drawn by the least squares method based on the obtained inhibitory rate.

The test system of test [2] is NAD(P)H oxidase in diabetic rat aorta. As to the kind of experiment: NAD(P)H oxidase activity (superoxide anion production, lucigenin chemiluminescence) in aorta of streptozotocin diabetic rats after oral administration. Conditions: once a day for 3 days. The test is classed as in vivo. The procedure: Streptozotocin (40 mg/kg) dissolved in 0.05 M citric acid buffer (pH 4.5) was administered into the tail vein of male Wistar rats (Japan SLC) to prepare diabetic rats. At 1 week to 8 weeks from the intravenous injection of streptozotocin, blood was drawn from the tail vein using a capillary treated with heparin, which was immediately cooled with ice and centrifuged at 3000 rpm, 15 min, 4° C. to give serum. The blood glucose level was measured by enzyme assay using a glucose measurement kit “GLU neo sinotest” (sinotest) and a microplate reader (SPECTRA MAX250, Molecular Devices).
The NAD(P)H oxidase activity was measured by the following method, which was modified by the method of the David. G. Harrison et al. (J. Clin. Invest. 91, 2546-2551, 1993), at 4 days from the start of the test, with superoxide anion production in aorta as an index.
To be specific, normal rat or diabetic rat free of the above-mentioned treatment was exsanguinated from the abdominal aorta, their thoracic aorta was removed. The removed thoracic aorta was immersed in Krebs-Hepes buffer and marginal tissues were removed to prepare an about 5 mm ring specimen. This ring specimen was preincubate in Krebs-Hepes buffer at 37° C. for 10 min and transferred to Krebs-Hepes buffer containing 0.25 mM lucigenin (SIGMA). 500 μM NADH (SIGMA) was added and chemiluminescence value (chemiluminescence: unit RLU: relative light units) was measured using a luminometer (MULTI-BIOLUMAT LB9505C, Warrack.Berthold) at 37° C. for 10 min. The total value of chemiluminescence was calculated from the area under the curve (hereinafter to be referred to as “AUC”) drawn by plotting the chemiluminescence value (vertical axis) relative to the measurement time (horizontal axis). The measured total value of chemiluminescence was divided by the wet weight of the vascular ring specimen and standardized to the superoxide anion production per aorta unit weight.
The inhibitory rate (%) was calculated from the following formula: inhibitory rate (%)=100−[(A−C)/(B−C)]×100
wherein A was the standardized value of chemiluminescence of diabetic rat administered with the test compound, B was the standardized value of chemiluminescence of diabetic rat without administration of the test compound, and C was the standardized value of chemiluminescence of normal rat without administration of the test compound.

Where [3] appears, read: test compound concentration 0.01 μM.
[4] abbreviates: test compound concentration 0.1 μM.
Where [5] appears, read: test compound concentration 1 μM.

With `c1ccc2c(c1)[I+]c1ccccc1-2` [DPI, diphenyleneiodonium, reference compound], the “inhibitory rate (%)” value in test [1] (200 μM added to aorta ring in vitro) came to 45.1%. Besides, the “chemiluminescence (×10^5 RLU/wet weight of aorta)” value in test [1] (200 μM added to aorta ring in vitro, mean ± standard error) was 5.2 ± 1.1 ×10^5 RLU/wet weight of aorta. Moreover, in test [1] (result in words), the “NAD(P)H oxidase inhibitory effect on aorta ring in vitro” value is recorded as “showed an NAD(P)H oxidase inhibitory effect”. Moreover, in the test with leukocyte NADPH oxidase (200 μg/mL, PMA-stimulated rat leukocytes, mean ± standard error), the “inhibitory rate (%), leukocyte NADPH oxidase” value is given as 106.7 ± 0.2%. For the same molecule, in the test with leukocyte NADPH oxidase (result in words), the “inhibitory effect on leukocyte NADPH oxidase” value was “showed an inhibitory effect on leukocyte NADPH oxidase”.

Usually pIC50 stands for the negative decadic logarithm of the IC50, by convention in mol/L. A low value points to a high IC50. With `N/C(=N\O)c1nn(-c2ccccc2)c2ccccc2c1=O` [compound G], the pIC50 with NAD(P)H oxidase was 6.66. Moreover, the “inhibitory rate (%) of IL-8 production” value in the test on NAD(P)H oxidase (setting [3]) came out at 39.7%; with NAD(P)H oxidase (setting [4]) it was 43.9%; in the test with NAD(P)H oxidase (setting [5]), 57.4%.

In the test on NAD(P)H oxidase, `N#Cc1nn(-c2ccccc2)c2ccccc2c1=O` [compound F] gave a pIC50 of 6.03. For the same molecule, the “inhibitory rate (%) of IL-8 production” value amounted to 0% with NAD(P)H oxidase (setting [3]), 0% in the test on NAD(P)H oxidase (setting [4]) and 54.5% with NAD(P)H oxidase (setting [5]).

The molecule `O=C(O)c1nn(-c2ccccc2)c2ccccc2c1=O` [compound C] had a pIC50 in the test with NAD(P)H oxidase of 7.81. For the same molecule, the “inhibitory rate (%) of IL-8 production” value with NAD(P)H oxidase (setting [3]) is given as −2.5%; in the test on NAD(P)H oxidase (setting [4]), 53.7%; in the test with NAD(P)H oxidase (setting [5]) it was 97.7%. Besides, the “inhibitory rate (%), NAD(P)H oxidase in diabetic rat aorta” value is reported as 45% in test [2] (0.01 mg/kg oral) and 90% in test [2] (0.1 mg/kg oral).

Take `Cc1cc(C)n(-c2nnc(-c3ccccc3)c3ccccc23)n1` [compound H]: the negative-log IC50 (pIC50) with NAD(P)H oxidase is 7.16. Further, the figures for the “inhibitory rate (%) of IL-8 production” value in the test on NAD(P)H oxidase (setting [3]), in the test on NAD(P)H oxidase (setting [4]) and in the test on NAD(P)H oxidase (setting [5]) were 27.6%, 49.9% and 83.0%, respectively.

As to `CCOC(=O)c1nn(-c2ccccc2)c2ccccc2c1=O` [compound E], the pIC50 in the test with NAD(P)H oxidase is over 8.00. Besides, the “inhibitory rate (%) of IL-8 production” value is recorded as 96.3% with NAD(P)H oxidase (setting [3]) and 91.0% in the test with NAD(P)H oxidase (setting [5]).

On to `NC(=O)c1nn(-c2ccccc2)c2ccccc2c1=O` [compound D], for which the pIC50 with NAD(P)H oxidase is 7.95. The “inhibitory rate (%) of IL-8 production” value is reported as 45.4% in the test with NAD(P)H oxidase (setting [3]), 98.3% in the test on NAD(P)H oxidase (setting [4]) and 100% in the test on NAD(P)H oxidase (setting [5]). The “inhibitory rate (%), NAD(P)H oxidase in diabetic rat aorta” value amounted to 44% in test [2] (0.01 mg/kg oral) and 72% in test [2] (0.1 mg/kg oral).
